Results: patent US20180327367A1, “MACROCYCLIC BROAD SPECTRUM ANTIBIOTICS” (priority 2015, published 2018)
Converted amounts (≈) assume the structure as drawn. Where two headings read alike, the source gives them in different places.

Legend:
[1] = system: Methicillin Resistant Staphylococcus aureus strain USA 300, NRS384; test: Minimum inhibitory concentration, broth micro-dilution (CLSI), S. aureus; type: cell-based; conditions: Staphylococcus aureus, MRSA / NRS 384 / USA300, 22 h, 35° C., 22 hours
In short: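 CLSI broth microdilution in cation-adjusted Mueller Hinton Broth with 0.002% Tween-80; inoculum final OD600 0.0005, 22 hours at 35° C. Ten 2-fold dilutions starting at 4 μg/mL (protocol 2) or 0.5 μg/mL (protocol 3).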

[2] = system: Escherichia coli MC4100 harboring the IMP4213 (E. coli IMP); test: microbe, parasite or virus in culture; type: cell-based; conditions: Escherichia coli, 22 h, read-out: MIC (μg/mL) E. coli IMP, E. coli MC4100 IMP4213, increased outer-membrane permeability; 35° C., 22 hours
In short: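 Top conc 4 μg/mL (protocol 2) or 0.5 μg/mL (protocol 3), 2-fold series, 10 points. Final OD600 0.0005; 22 h, 35° C. IMP4213 = permeable outer membrane.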

[3] = system: Escherichia coli ATCC 25922; test: Minimum inhibitory concentration, broth micro-dilution (CLSI), E. coli; type: cell-based; conditions: Escherichia coli, ATCC25922, 22 h, 35° C., 22 hours
[4] = target: T1, SpsB (Staphylococcus aureus signal peptidase) (Staphylococcus aureus, UniProt P0A070); test: cell-based; type: biochemical; conditions: SpsB IC50, whole-cell S. aureus (USA300 background, overexpressing SpsB) as SpsB source; fluorogenic peptide substrate, kinetic read 30 min
T1 construct: This assay uses a suspension of Staphylococcus aureus cells as a source of SpsB instead of recombinant SpsB protein; endogenous in cells; host or cells: S. aureus, USA300 background, overexpressing SpsB (whole-cell suspension from frozen pellets)
T1 sequence (P0A070 whole entry): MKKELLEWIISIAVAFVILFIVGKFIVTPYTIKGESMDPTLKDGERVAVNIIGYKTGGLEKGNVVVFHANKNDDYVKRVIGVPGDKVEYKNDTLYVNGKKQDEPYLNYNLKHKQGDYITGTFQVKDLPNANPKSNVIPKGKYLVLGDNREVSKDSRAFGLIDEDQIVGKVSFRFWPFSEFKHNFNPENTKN
In short: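 Cleavage of an internally quenched (Dabcyl)βAla-KPAKAAE(Edans) peptide, added as 20 μM solution mixed 1:1 with cells, was followed for 30 min at 340/490 nm. SpsB came from a suspension of SpsB-overexpressing USA300 S. aureus in Tween-80-containing PBS buffer. Slopes plotted against 3-fold compound dilutions gave IC50.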

[5] = MRSA USA 300 NRS384, read-out: MIC (μg/mL) S. aureus
[6] = E. coli ATCC 25922, read-out: MIC (μg/mL) E. coli
[7] = read-out: MIC (μg/mL) S. aureus, MRSA USA 300 NRS384
[8] = read-out: MIC (μg/mL) E. coli, E. coli ATCC 25922

Compound | MIC [1, 5] | MIC [2] | MIC [3, 6] | IC50 [4] | MIC [1, 7] | MIC [3, 8]
CC(C)CCc1ccc(-c2ccc(C(=O)N[C@@H](CCN)C(=O)N(C)[C@@H]3C(=O)N[C@@H](C)C(=O)N[C@H](C(=O)NCC#N)Cc4ccc(OCCN)c(c4)-c4cc3ccc4OCCN)cc2)cc1 [Compound 177] | 0.094 µg/mL (≈ 0.106 µM) | 0.016 µg/mL (≈ 0.018 µM) | 0.19 µg/mL (≈ 0.214 µM) | 1.1 nM |  | 
CCCCc1ccc(-c2ccc(C(=O)N[C@@H](Cc3c[nH]cn3)C(=O)N(C)[C@@H]3C(=O)N[C@@H](C)C(=O)N[C@H](C(=O)NCC#N)Cc4ccc(OCCN)c(c4)-c4cc3ccc4OCCN)cc2)cc1 [Compound 478] | 0.19 µg/mL (≈ 0.209 µM) | 0.19 µg/mL (≈ 0.209 µM) | 6 µg/mL (≈ 6.59 µM) | 1.5 nM |  | 
CCCCc1ccc(-c2ccc(C(=O)N[C@@H](CCCCN)C(=O)N(C)[C@@H]3C(=O)N[C@@H](C)C(=O)N[C@H](C(=O)NC4(C#N)CC4)Cc4ccc(O)c(c4)-c4cc3ccc4OCCN)cc2)cc1 [Compound 495] | 3 µg/mL (≈ 3.39 µM) | 1 µg/mL (≈ 1.13 µM) | 16 µg/mL (≈ 18.1 µM) | 20 nM |  | 
CCCCc1ccc(-c2ccc(C(=O)N[C@@H](CCCN)C(=O)N(C)[C@@H]3C(=O)N[C@@H](C)C(=O)N[C@H](C(=O)NCC#N)Cc4ccc(OCCN)c(c4)-c4cc3ccc4OCCN)c(C)c2)cc1 [Compound 142] | 0.039 µg/mL (≈ 0.0432 µM) | 0.042 µg/mL (≈ 0.0466 µM) | 0.16 µg/mL (≈ 0.177 µM) | 0.72 nM |  | 
CCCCCCCCCCN[C@@H](CO)C(=O)N(C)[C@@H]1C(=O)N[C@@H](C)C(=O)N[C@H](C(=O)NCC#N)Cc2ccc(OCCN)c(c2)-c2cc1ccc2OCCN [Compound 400] |  | 2 µg/mL (≈ 2.61 µM) |  | 5 nM | 0.25 µg/mL (≈ 0.327 µM) | > 64 µg/mL
CCCCCCCCCCCCCC(=O)N[C@@H](CN)C(=O)N(C)[C@@H]1C(=O)N[C@@H](C)C(=O)N[C@H](C(=O)NCC#N)Cc2ccc(OCCN)c(c2)-c2cc1ccc2OCCN [Compound 343] | 0.094 µg/mL (≈ 0.113 µM) | 0.063 µg/mL (≈ 0.0755 µM) | 0.25 µg/mL (≈ 0.3 µM) | 0.73 nM |  | 
CCCCc1ccc(-c2ccc(C(=O)N[C@@H](CCCCN)C(=O)N(C)[C@@H]3C(=O)N[C@@H](C)C(=O)N[C@H](C(=O)NC4(C#N)CC4)Cc4ccc(OCCN)c(c4)-c4cc3ccc4OCCN)cc2)cc1 [Compound 494] | 1 µg/mL (≈ 1.08 µM) | 0.5 µg/mL (≈ 0.539 µM) | 16 µg/mL (≈ 17.2 µM) | 2.1 nM |  | 
CCCCCCCS(=O)(=O)c1ccc(C(=O)N[C@@H](CCN)C(=O)N(C)[C@@H]2C(=O)N[C@@H](C)C(=O)N[C@H](C(=O)NCC#N)Cc3ccc(OCCN)c(c3)-c3cc2ccc3OCCN)c(C)c1 [Compound 390] | 0.13 µg/mL (≈ 0.142 µM) | 0.031 µg/mL (≈ 0.0338 µM) | 3 µg/mL (≈ 3.27 µM) | 1.1 nM |  | 
CCCCCCCCc1ccc(C(=O)N[C@@H](CCN)C(=O)N(C)[C@@H]2C(=O)N[C@@H](C)C(=O)N[C@H](C(=O)NCC#N)Cc3ccc(OCCN)c(c3)-c3cc2ccc3OCCN)c(CC(N)=O)c1 [Compound 448] |  | 0.016 µg/mL (≈ 0.0176 µM) |  | 0.93 nM | 0.023 µg/mL (≈ 0.0252 µM) | 0.75 µg/mL (≈ 0.823 µM)
C[C@@H]1NC(=O)[C@@H](N(C)C(=O)[C@H](CCCCN)NC(=O)c2ccc(-c3cc(Cl)cc(Cl)c3)cc2)c2ccc(OCCN)c(c2)-c2cc(ccc2OCCN)C[C@@H](C(=O)NCC#N)NC1=O [Compound 111] |  | 0.13 µg/mL (≈ 0.142 µM) |  | 1 nM | 0.13 µg/mL (≈ 0.142 µM) | 8 µg/mL (≈ 8.74 µM)
COc1ccc(-c2ccc(C(=O)N[C@@H](CCCCN)C(=O)N(C)[C@@H]3C(=O)N[C@@H](C)C(=O)N[C@H](C(=O)NCC#N)Cc4ccc(OCCN)c(c4)-c4cc3ccc4OCCN)cc2)cc1OC [Compound 109] | 2 µg/mL (≈ 2.21 µM) | 1 µg/mL (≈ 1.1 µM) | > 64 µg/mL | 7.5 nM |  | 
CCCCCCCCCCCC(=O)N[C@@H](CCC(=O)O)C(=O)N(C)[C@@H]1C(=O)N[C@@H](C)C(=O)N[C@H](C(=O)NCC#N)Cc2ccc(OCCN)c(c2)-c2cc1ccc2OCCN [Compound 253] | 2 µg/mL (≈ 2.36 µM) | 2 µg/mL (≈ 2.36 µM) | > 64 µg/mL | 12 nM |  | 
CCCCCCc1ccc(C(=O)N[C@@H](CCN)C(=O)N(C)[C@@H]2C(=O)N[C@@H](C)C(=O)N[C@H](C(=O)NCC#N)Cc3ccc(OCCN)c(c3)-c3cc2ccc3OCCN)cc1 [Compound 195] | 0.063 µg/mL (≈ 0.0763 µM) | 0.0078 µg/mL (≈ 0.00944 µM) | 0.5 µg/mL (≈ 0.605 µM) | 1.4 nM |  | 
CCCCCCCCc1cnc(C(=O)N[C@@H](CCN)C(=O)N(C)[C@@H]2C(=O)N[C@@H](C)C(=O)N[C@H](C(=O)NCC#N)Cc3ccc(OCCN)c(c3)-c3cc2ccc3OCCN)c(C)c1 [Compound 187] | 0.063 µg/mL (≈ 0.0725 µM) | 0.047 µg/mL (≈ 0.0541 µM) | 2 µg/mL (≈ 2.3 µM) | 0.74 nM |  | 
